Values quoted from earlier work in patent US5723589A, “Carbohydrate conjugated bio-active compounds” (ICN Pharmaceuticals, priority 1995, dated 1998).

What was measured:
[1] = system: GLUT-1 in cancer cells; conditions: inhibition of GLUT-1 functioning by binding; cited from earlier work
[2] = system: GLUT-1 in normal 3T3 fibroblasts; conditions: Endocrinology 1990, 126, 2778; cited from earlier work
[3] = system: blood brain barrier; conditions: concentrated solutions infused into the carotid arteries; cited from earlier work

Cc1ccc(C(=O)Nc2ccc(S(=O)(=O)O)c3cc(S(=O)(=O)O)cc(S(=O)(=O)O)c23)cc1NC(=O)c1cccc(NC(=O)Nc2cccc(C(=O)Nc3cc(C(=O)Nc4ccc(S(=O)(=O)O)c5cc(S(=O)(=O)O)cc(S(=O)(=O)O)c45)ccc3C)c2)c1 [suramin]
glucose uptake and growth rate of the treated cells [1]: significantly limits glucose uptake and the growth rate of the treated cells

Sodium vanadate
GLUT-1 expression [2]: able to induce GLUT-1 expression
extension of the half-life of GLUT-1 mRNA [2]: 2-3 times

OC[C@@H](O)[C@@H](O)[C@H](O)[C@H](O)CO [mannitol]
disruption of the blood brain barrier [3]: disrupt the blood brain barrier long enough to allow methotrexate and other potent chemotherapeutic agents to penetrate brain tumors
